Assay results published in publication PMC2765639 (PLoS Neglected Tropical Diseases, 2009).
Read-outs that look alike come from different tables or passages of the source.

Tests used:
L. major = assay: In vivo murine CL efficacy study (footpad lesion model); design: species or system Balb/c mice; settings: for decrease in footpad thickness: 40 mg/kg; for reduction in footpad thickness: 160 mg/kg, vs vehicle
Description: Adult female Balb/c mice (6 to 10 week old) were obtained from (Charles River Laboratories, Wilmington, MA) and maintained as outlined by the National Institutes of Health Guide for the Care and Use of Laboratory Animals. All in vivo studies were carried out in accordance with protocols approved by the Institutional Animal Care and Use Committee (IACUC) at the University of Miami (IACUC number C01-08). Food and water were supplied ad libitum. […] Animals were examined daily to determine lesion development. […] Control mice were injected with an equivalent amount of vehicle control or amphotericin B (12.5 mg/kg). […] Mice were euthanized in a CO2 chamber at day 21.

[1] = system: L. major axenic amastigote-like population; assay: L. major axenic amastigote-like alamar blue assay (pH 4.9); type: cell-based, Leishmania major; settings: for EC50: Leishmania major
L. major promastigotes [2] = assay: L. major promastigote drug susceptibility assay (alamar blue, 384-well); type: cell-based, Leishmania major
Description: Promastigotes were grown in vented T75 tissue culture flasks and maintained at 28°C. Promastigote cultures were initiated at 10^5 parasites per mL and subcultured every 3–4 days. L. major promastigote counts were performed in duplicate using a hemocytometer and particle counter (Beckman Coulter, Fullerton, CA). For HTS assays, L. major promastigote cultures were harvested during exponential growth phase (∼2.0–3.0×10^7 parasites/mL) and were not maintained past passage 20.
The final test compound concentration was 10 µM with a constant DMSO concentration of 1% in each assay well.
The L. major promastigote drug susceptibility assay was performed in a final volume of 25 µL using our previously described 384-well microtiter plate format,[39]. For automated HTS procedures, L. major promastigotes (5,000 parasites/22 µL) in complete growth medium were seeded into each well of the microtiter plates using a MAPC2 bulk dispenser (Titertek, Huntsville, AL). Test and control compounds (3 µL) were added to individual wells using a Velocity 11 V-prep (Menlo Park, CA) liquid handling system, equipped with a 384-well dispensing head, followed by centrifugation at 50 g for 1 min. […] Assay plates were allowed to incubate for 44 h at 28°C in the presence of 5% CO2. Five µL of alamar blue reagent were added to each assay plate well and incubated for 4 h at 28°C with 5% CO2. Data were captured on a Molecular Devices SpectraMax M5 (excitation560; emission590). Individual assay plate Z-factors were derived from the vehicle and positive controls, and data from plates were used only if Z-factors were >0.5 [50].
The assays were performed in duplicate with a final 10-point concentration range spanning 0.01–5.00 µM.

L. major promastigotes [3] = assay: Flow cytometer-based growth inhibition and cytotoxicity assay; settings: Leishmania major, 48 h, read-out: L. major promastigote EC50 (AVE±SD) Confirmation Flow Cytometry
A549 = assay: Mammalian cell line specificity assay (alamar blue); type: cell-based, human
Description: (§1) Mammalian cells were cultured and maintained according to ATCC specifications (ATCC, Manassas, VA). Cell line drug susceptibility assays were performed in final volumes of 25 µL using our previously described 384-well microtiter plate format,[39]. […] Test and control compounds were added to individual wells as described above. Vehicle and positive controls were 1% DMSO and 10% DMSO, respectively (final well concentrations). Assay plates were incubated for 44–46 h at 37°C in the presence of 5% CO2 and growth inhibitory effects were determined as described above. Five µL of alamar blue reagent was added to each well and incubated for 2–4 h. Data were captured as described above.

HeLa = assay: as above; type: cell-based, human; settings: Homo sapiens, HeLa; 44–46 h, alamar blue; read-out: HeLa EC50 (AVE±SD)
Description: as §1

PC-3 = assay: as above; type: cell-based, human; settings: Homo sapiens, PC-3; 44–46 h, alamar blue; read-out: PC-3 EC50 (AVE±SD)
Description: as §1

MDA-MB-231 = assay: as above; type: cell-based, human; settings: Homo sapiens, MDA-MB-231; 44–46 h, alamar blue; read-out: MDA EC50 (AVE±SD)
Description: as §1

IMR-90 = assay: as above; type: cell-based, human; settings: Homo sapiens, IMR-90; 44–46 h, alamar blue; read-out: IMR90 EC50 (AVE±SD)
Description: as §1

[4] = pH 4.9, 144 h, 32°C, read-out: L. major axenic amastigote-like EC50 (AVE±SD) Confirmation Alamar Blue
[5] = Leishmania major, 48 h, compounds from commercial supplier, 44 h + 4 h alamar blue, 28°C, read-out: L. major promastigote EC50 (AVE±SD) Confirmation Alamar Blue
[6] = Homo sapiens, A549, 44–46 h, alamar blue, read-out: A549 EC50 (AVE±SD)
[7] = Homo sapiens, A549, Table S1, PMLSC library samples, read-out: EC50 Ave ± SD, A549
[8] = Table S1, PMLSC library samples, 10-point 0.01–5.00 µM, read-out: EC50 Ave ± SD, Lm
[9] = Table S1, PMLSC library samples, read-out: EC50 Ave ± SD, A549
[10] = 144 h, pH 4.9, read-out: L. major axenic amastigote-like EC50 (AVE±SD) Confirmation Alamar Blue
[11] = Leishmania major, read-out: EC50 Ave ± SD, Lm

Row | SMILES | EC50 (A549; [6]) | EC50 (HeLa) | EC50 (PC-3) | EC50 (MDA-MB-231) | EC50 (L. major promastigotes [2]; [8]) | EC50 (A549; [9]) | EC50 (L. major promastigotes [3]) | EC50 (A549; [7]) | EC50 (IMR-90) | EC50 [1, 10] | EC50 (L. major promastigotes [2]; [11]) | further results
1 | CCN(CC)C(=S)SSC(=S)N(CC)CC [Disulfiram] | > 50000 nM | > 50000 nM | > 50000 nM | > 50000 nM |  |  | 190 ± 60 nM | 2160 ± 1220 nM | > 50000 nM |  |  | decrease in footpad thickness (L. major; day 14): 25%; decrease in footpad thickness (L. major; day 21): 35%; reduction in footpad thickness (L. major; day 14 post-infection): ~43%; reduction in footpad thickness (L. major; day 21 post-infection): 50%; EC50 [1, 4]: 130 ± 10 nM; growth inhibitory activity in axenic amastigote-like assay ([1]; pH 4.9): comparable to amphotericin B; EC50 (L. major promastigotes [2]; [5]): 500 ± 50 nM; EC50 (L. major promastigotes [2]; Leishmania major, Table S1, PMLSC library samples, 10-point 0.01–5.00 µM, read-out: EC50 Ave ± SD, Lm): 263 ± 20 nM
2 | CC12CCC(C(=O)N(CCCN3CCN(Cc4ccccc4)CC3)C1=O)C2(C)C (stereo not shown) [CID 16189740] |  |  |  |  | 571 ± 113 nM | > 5000 nM |  |  |  |  |  | 
3 | Cc1ccc(OCCCCn2ccnc2)c(Cl)c1 [CID 2851545] |  |  |  |  |  |  | 340 ± 480 nM | > 5000 nM |  | 11700 ± 500 nM | 133 ± 35 nM | 
4 | C[C@@H]1[C@H](O)[C@@H](C)/C=C/C=C/C=C/C=C/C=C/C=C/C=C/[C@H](O[C@@H]2O[C@H](C)[C@@H](O)[C@H](N)[C@@H]2O)C[C@@H]2O[C@](O)(C[C@@H](O)C[C@@H](O)[C@H](O)CC[C@@H](O)C[C@@H](O)CC(=O)O[C@H]1C)C[C@H](O)[C@H]2C(=O)O [Amphotericin B, reference compound] | > 50000 nM | > 50000 nM | > 50000 nM | > 50000 nM |  |  | 190 ± 60 nM |  | 8700 ± 2400 nM |  |  | reduction in footpad swelling (in vivo effects, summary) (L. major; summary statement in results/discussion): 85–90%; EC50 [1, 4]: 380 ± 10 nM; EC50 (L. major promastigotes [2]; [5]): 210 ± 10 nM; EC50 (L. major promastigotes [2]; Leishmania major, assay optimization, read-out: EC50, L. major promastigotes, 384-well format): 207 ± 11 nM
5 | COC(=O)c1ccc(-c2ccc(CNCC(O)c3ccccc3)o2)cc1 (stereo not shown) [CID 6602747] |  |  |  |  | 104 ± 27 nM | > 5000 nM |  |  |  |  |  | 
6 | CN(C)CCOc1ccccc1Cc1ccccc1 [Phenytoloxamine, reference compound] | > 50000 nM | > 50000 nM | > 50000 nM | > 50000 nM |  |  | 300 ± 30 nM | > 5000 nM | > 50000 nM | > 50000 nM | 502 ± 87 nM | 
7 | O=C1C2ON(c3ccc(Br)cc3)C(c3ccccn3)C2C(=O)N1C1CCCCC1 (stereo not shown) [CID 2946668] |  |  |  |  |  |  | 350 ± 60 nM | > 5000 nM |  | 1200 ± 400 nM | 515 ± 66 nM | 

Further lines, with some results ahead:

Row | EC50 (A549; [6]) | EC50 (HeLa) | EC50 (PC-3) | EC50 (MDA-MB-231) | EC50 (L. major promastigotes [2]; [8]) | EC50 (A549; [9]) | SMILES | EC50 (L. major promastigotes [3]) | EC50 (A549; [7]) | EC50 (IMR-90) | EC50 [1, 10] | EC50 (L. major promastigotes [2]; [11]) | further results
8 |  |  |  |  | 242 ± 29 nM | 955 ± 25 nM | COc1ccc(NC(=O)/C(Cl)=C(/Cl)[S+]([O-])Cc2ccccc2Cl)cn1 (stereo not shown) [CID 1475345] |  |  |  |  |  | 
9 |  |  |  |  | 50 ± 9 nM | > 5000 nM | COc1ccc(/C=C/c2cc[n+](C(=O)Cc3ccccc3)cc2)cc1 [CID 16196001] |  |  |  |  |  | 
10 |  |  |  |  | 723 ± 24 nM | > 5000 nM | Cc1nnc(Nc2ccccn2)c2ccccc12 [CID 645317] |  |  |  |  |  | 
